Experimental data reported in article PMC8064491, “Design and Synthesis of Novel Symmetric Fluorene-2,7-Diamine Derivatives as Potent Hepatitis C Virus Inhibitors” (Pharmaceuticals, 2021).
Read-outs that look alike come from different tables or passages of the source.

Assays:
[1] = system: HCV subgenomic reporter replicon of genotype 1b (strain Con1); experiment: Anti-HCV 1b activity, luciferase reporter replicon assay in Huh5-2 cells; assay type: cell-based, Hepatitis C virus; details: for EC50: read-out: HCV Replicon 1b EC50; for HCV Replicon 1b SI50: SI50 = CC50/EC50; for fold more potent than six-membered congeners: 1, 9, 17, 21 vs 29, 30, 31, 32 respectively
Protocol: (§1) The HCV RNA replication inhibitory effect of the novel compounds and their impact on cell viability was tested in the stable cell line Huh5-2 carrying an HCV subgenomic reporter replicon of genotype 1b (strain Con1). The viral replication level was measured in terms of the activity of the co-expressed firefly luciferase (F-Luc). Several concentrations of the tested compounds were prepared in a cell culture medium and were used to treat the cells for 72 h. The solvent DMSO was added as a control with a final concentration of 0.2% so as not to impact viral replication (data not shown). First, different compound concentrations of up to 100 μM were evaluated for their effect on cell viability; results are reported as the median cytotoxic concentration (CC50). Next, all compounds were screened for their anti-HCV activity at a concentration of 1 µM, and compounds showing ≥50% activity were further tested in several concentrations to calculate the median effective concentration (EC50) values (Table 1 and Table 2). The anti-HCV activity of the analogs 1–32 was estimated by quantifying luciferase activity resulting from viral replication. Cytotoxicity was determined by measuring the intracellular levels of ATP. The selectivity index (SI50) was calculated as the ratio of CC50 to EC50 and was calculated as an indication of the compounds’ safety. We used daclatasvir as a positive control.
(§2) The stable replicon cell line Huh5-2 (genotype 1b; Con1) (kindly provided by R. Bartenschlager, Heidelberg University, Germany) has been described previously. The stable cell lines Huh7.5-3a and Huh7.5-4a have been constructed with the subgenomic reporter replicons of HCV 3a (S52) S52-SG(Feo)(AII) and HCV 4a (ED43) ED43-SG(Feo)(VYG) (kindly provided by C.M. Rice, The Rockefeller University, NY). Cells were cultured in high glucose (25 mM) Dulbecco’s modified minimal essential medium (Invitrogen), supplemented with 2 mM L-glutamine, 0.1 mM non-essential amino acids, 100 U/mL penicillin, 100 µg/mL streptomycin, and 10% (v/v) fetal calf serum (referred to as complete DMEM). Complete DMEM was supplemented with G418 at 500 μg/mL for Huh5-2, 750 μg/mL for Huh7.5-3a, and 350 μg/mL for Huh7.5-4a.
(§3) Cells were treated with serial dilutions of the test compounds or the solvent DMSO for 72 h. Antiviral activity and cytotoxicity were determined by measuring virus-derived luciferase activity or intracellular ATP levels, respectively. The median effective concentration (EC50) of the compounds, reducing luciferase signal by 50%, and their median cytotoxic concentration (CC50), causing 50% cell death, were determined by nonlinear regression analysis using the Prism 6.0 software (GraphPad Software Inc.). Daclatasvir was kindly provided by Dr. Marc Windisch (Institut Pasteur Korea).
Firefly luciferase activity was measured using Luciferase Assay System (Promega), according to the manufacturer’s instructions. Measurements were performed with a GloMax 20/20 single tube luminometer (Promega) for 10 s. Values were normalized to total protein amounts as quantified by Bradford assay (Pierce).

Huh5-2 cells = experiment: Cytotoxicity by intracellular ATP levels; assay type: cell-based; details: 72 h, read-out: HCV Replicon 1b CC50
Protocol: as §1, §3
(§4) ATP was measured using the ViaLight HS BioAssay kit (Lonza) according to the manufacturer’s protocol in a GloMax 20/20 single-tube luminometer (Promega) for 1 s. Values were normalized to total protein amounts.

[2] = Cytotoxicity by intracellular ATP levels; assay type: cell-based; details: human, Huh5-2 cells, read-out: HCV Replicon 1b CC50
Protocol: as §1, §3, §4

[3] = system: HCV subgenomic replicon of genotype 3a (strain S52); experiment: Anti-HCV 3a activity, replicon assay in Huh7.5-3a cells; assay type: cell-based, Hepatitis C virus; details: Hepatitis C virus; Huh7.5-3a cells; read-out: EC50 GT 3a
Text: Compound 26, showing the highest activity on genotype 1b was further tested against HCV 3a and 4a replicons. The fact that genotype 4 is highly heterogeneous, of less response to DAAs, and the most prevalent genotype in Egypt, made this genotype of specific interest. Moreover, genotype 3 is the most difficult to treat genotype using DAAs, especially in patients with liver cirrhosis. Specifically, Huh7.5-3a and Huh7.5-4a stable cell lines having HCV subgenomic replicons of genotypes 3a (strain S52) and 4a (strain ED43), respectively, were treated with different concentrations of compound 26. […] Further structural optimization is required, and testing compound 26 in combination with other DAAs could improve the clinical outcome.
as §2
Cells were treated with serial dilutions of the test compounds or the solvent DMSO for 72 h. Antiviral activity and cytotoxicity were determined by measuring virus-derived luciferase activity or intracellular ATP levels, respectively. […]
Firefly luciferase activity was measured using Luciferase Assay System (Promega), according to the manufacturer’s instructions. […] Values were normalized to total protein amounts as quantified by Bradford assay (Pierce).

[4] = Huh5-2 cells, 72 h, luciferase activity
[5] = Hepatitis C virus, Huh-5-2, Huh5-2 cells, 72 h, luciferase activity
[6] = Hepatitis C virus, Huh-5-2, 72 h

Diethyl((2S,2’S)-((2S,2’S)-(((9H-fluorene-2,7-diyl)bis(azanediyl))bis(carbonyl))bis(pyrrolidine-2,1-diyl))bis(3-methyl-1-oxopentane-1,2-diyl))dicarbamate [Compound 10]
fold more potent than congener with D-leucine moiety ([1]; HCV 1b EC50 ratio): 18 fold | EC50 [1, 4]: 0.137 nM | HCV Replicon 1b SI50 [1]: 622,344 | CC50 (Huh5-2 cells): 85.5 µM

Dibenzyl((2S,2’S)-((2S,2’S)-(((9H-fluorene-2,7-diyl)bis(azanediyl))bis(carbonyl))bis(pyrrolidine-2,1-diyl))bis(3-methyl-1-oxopentane-1,2-diyl))dicarbamate [Compound 12]
EC50 [1, 4]: > 1000 nM | CC50 (Huh5-2 cells): 46.5 µM

Dimethyl((2S,2’S)-((2S,2’S)-(((9H-fluorene-2,7-diyl)bis(azanediyl))bis (carbonyl)) bis(pyrrolidine-2,1-diyl))bis(4-methyl-1-oxopentane-1,2-diyl))dicarbamate [Compound 17]
fold more potent than six-membered congeners ([1]; HCV 1b EC50 ratio): 28 fold | EC50 [1, 4]: 10.7 nM | HCV Replicon 1b SI50 [1]: >9381 | CC50 (Huh5-2 cells): > 100 µM

Diethyl((2S,2’S)-((2S,2’S)-(((9H-fluorene-2,7 diyl)bis(azanediyl))bis(carbonyl)) bis(pyrrolidine-2,1-diyl))bis(4-methyl-1-oxopentane-1,2-diyl))dicarbamate [Compound 18]
EC50 [1, 4]: 151 nM | HCV Replicon 1b SI50 [1]: >664 | CC50 (Huh5-2 cells): > 100 µM

Dimethyl((2S,2’S)-((2S,2’S)-(((9H-fluorene-2,7-diyl)bis(azanediyl))bis(carbonyl))bis(pyrrolidine-2,1-diyl))bis(3-methyl-1-oxopentane-1,2-diyl))dicarbamate [Compound 9]
fold more potent than six-membered congeners ([1]; HCV 1b EC50 ratio): 11 fold | times less active than R congener compound 13 ([1]; HCV 1b EC50 ratio): around 340 times | EC50 [1, 4]: 27.5 nM | HCV Replicon 1b SI50 [1]: >3636 | CC50 (Huh5-2 cells): > 100 µM

COC(=O)N[C@H](C(=O)N1CCC[C@H]1c1nc(-c2ccc(-c3ccc(-c4c[nH]c([C@@H]5CCCN5C(=O)[C@@H](NC(=O)OC)C(C)C)n4)cc3)cc2)c[nH]1)C(C)C [Daclatasvir, reference compound]
EC50 [1, 5]: 0.027 nM | HCV Replicon 1b SI50 [1]: 655,556 | CC50 at 72 h [2]: 17.7 µM | EC50 [3]: 0.0083 µM

Dibenzyl((2S,2’S)-((2S,2’S)-(((9H-fluorene-2,7-diyl)bis(azanediyl))bis(carbonyl))bis(pyrrolidine-2,1-diyl))bis(4-methyl-1-oxopentane-1,2-diyl))dicarbamate [Compound 20]
EC50 [1, 4]: > 1000 nM | CC50 (Huh5-2 cells): 98.7 µM

COC(=O)N[C@H](C(=O)N1CCC[C@H]1C(=O)Nc1ccc2c(c1)Cc1cc(NC(=O)[C@@H]3CCCN3C(=O)[C@@H](NC(=O)OC)c3ccccc3)ccc1-2)c1ccccc1 [Compound 21, Dimethyl((1S,1’S)-((2S,2’S)-(((9H-fluorene-2,7diyl)bis(azanediyl))bis(carbonyl))bis(pyrrolidine-2,1-diyl))bis(2-oxo-1-phenylethane-2,1-diyl))dicarbamate]
fold more potent than six-membered congeners ([1]; HCV 1b EC50 ratio): 36 fold | EC50 [1, 6]: 8.5 nM | HCV Replicon 1b SI50 [1]: 10,298 | CC50 at 72 h [2]: 87.5 µM

COC(=O)N[C@H](C(=O)N1CCCC(C(=O)Nc2ccc3c(c2)Cc2cc(NC(=O)C4CCCN(C(=O)[C@@H](NC(=O)OC)C(C)C)C4)ccc2-3)C1)C(C)C (some centres unmarked) [Compound 29]
EC50 [1, 6]: 342 nM | HCV Replicon 1b SI50 [1]: >292 | CC50 at 72 h [2]: > 100 µM

COC(=O)N[C@H](C(=O)N1CCCC(C(=O)Nc2ccc3c(c2)Cc2cc(NC(=O)C4CCCN(C(=O)[C@@H](NC(=O)OC)c5ccccc5)C4)ccc2-3)C1)c1ccccc1 (some centres unmarked) [Compound 32]
EC50 [1, 6]: 304 nM | HCV Replicon 1b SI50 [1]: >328 | CC50 at 72 h [2]: > 100 µM

COC(=O)N[C@@H](CC(C)C)C(=O)N1CCCC(C(=O)Nc2ccc3c(c2)Cc2cc(NC(=O)C4CCCN(C(=O)[C@H](CC(C)C)NC(=O)OC)C4)ccc2-3)C1 (some centres unmarked) [Compound 30]
EC50 [1, 6]: 289 nM | HCV Replicon 1b SI50 [1]: >346 | CC50 at 72 h [2]: > 100 µM

CCCCOC(=O)N[C@H](C(=O)N1CCC[C@H]1C(=O)Nc1ccc2c(c1)Cc1cc(NC(=O)[C@@H]3CCCN3C(=O)[C@@H](NC(=O)OCCCC)C(C)C)ccc1-2)C(C)C [Compound 3, Dibutyl((2S,2’S)-((2S,2’S)-(((9H-fluorene-2,7-diyl)bis(azanediyl))bis(carbonyl))bis(pyrrolidine-2,1-diyl))bis(3-methyl-1-oxobutane-1,2-diyl))dicarbamate]
EC50 [1, 6]: > 1000 nM | CC50 at 72 h [2]: > 100 µM

O=C(N[C@H](C(=O)N1CCC[C@H]1C(=O)Nc1ccc2c(c1)Cc1cc(NC(=O)[C@@H]3CCCN3C(=O)[C@@H](NC(=O)OCc3ccccc3)c3ccccc3)ccc1-2)c1ccccc1)OCc1ccccc1 [Compound 24, Dibenzyl((1S,1’S)-((2S,2’S)-(((9H-fluorene-2,7-diyl)bis(azanediyl))bis(carbonyl))bis(pyrrolidine-2,1-diyl))bis(2-oxo-1-phenylethane-2,1-diyl))dicarbamate]
EC50 [1, 5]: 1.12 nM | HCV Replicon 1b SI50 [1]: >89,606 | CC50 at 72 h [2]: > 100 µM

CCCCOC(=O)N[C@H](C(=O)N1CCC[C@H]1C(=O)Nc1ccc2c(c1)Cc1cc(NC(=O)[C@@H]3CCCN3C(=O)[C@@H](NC(=O)OCCCC)c3ccccc3)ccc1-2)c1ccccc1 [Compound 23, Dibutyl((1S,1’S)-((2S,2’S)-(((9H-fluorene-2,7-diyl)bis(azanediyl))bis(carbonyl))bis(pyrrolidine-2,1-diyl))bis(2-oxo-1-phenylethane-2,1-diyl))dicarbamate]
EC50 [1, 6]: 2.25 nM | HCV Replicon 1b SI50 [1]: >44,444 | CC50 at 72 h [2]: > 100 µM

CCOC(=O)N[C@@H](C(=O)N1CCC[C@H]1C(=O)Nc1ccc2c(c1)Cc1cc(NC(=O)[C@@H]3CCCN3C(=O)[C@H](NC(=O)OCC)C(C)C)ccc1-2)C(C)C [Compound 6, Diethyl((2R,2’R)-((2S,2’S)-(((9H-fluorene-2,7-diyl)bis(azanediyl))bis(carbonyl))bis(pyrrolidine-2,1-diyl))bis(3-methyl-1-oxobutane-1,2-diyl))dicarbamate]
EC50 [1, 6]: 102 nM | HCV Replicon 1b SI50 [1]: 780 | CC50 at 72 h [2]: 79.5 µM

CC(C)(C)OC(=O)N1CCCC(C(=O)Nc2ccc3c(c2)Cc2cc(NC(=O)C4CCCN(C(=O)OC(C)(C)C)C4)ccc2-3)C1 (centres unmarked) [IV, Di-tert-butyl3,3’-(((9H-fluorene-2,7diyl)bis(azanediyl))bis(carbonyl))bis(piperidine-1-carboxylate)]
EC50 [1, 5]: > 1000 nM | CC50 at 72 h [2]: 45 µM
